Holding throughout (format): cell-based
One series concerns S. aureus ATCC 29213. How it is done: (§1) The synthesized SPRLPs were evaluated for their antibacterial potency against a panel of Gram-positive and Gram-negative bacteria (Tables 2 & 3). Some of the included pathogens were collected from patients visiting or admitted to participating Canadian hospitals through the CAN-ICU (27) and CANWARD (28) national surveillance studies. Antibacterial activity was assessed using minimum inhibitory concentration (MIC) against various clinical pathogens.
(§2) Isolates used in this study were either obtained from the American Type Culture Collection (ATCC), the Canadian National Intensive Care Unit (CAN-ICU) surveillance study (27) or the Canadian Ward Surveillance (CANWARD) study (28). Clinical isolates belonging to the CAN-ICU and CANWARD studies were recovered from patients suffering a presumed infectious disease entering or admitted in a participating medical center across Canada during the time of study. MDR P. aeruginosa strains in this study refer to those that are resistant to aminoglycosides, fluoroquinolones, cephalosporins, and carbapenems while XDR strains are those that are resistant to aminoglycosides, fluoroquinolones, cephalosporins, carbapenems, aztreonam and penicillin+β-lactamase inhibitor combination (39, 40).
(§3) Microbroth dilution susceptibility test following the Clinical and Laboratory Standards Institute (CLSI) guidelines (32) was performed to assess the in vitro antibacterial activity of SPRLPs. Overnight grown bacterial cultures were diluted in saline to achieve a 0.5 McFarland turbidity, followed by 1:50 dilution in Mueller-Hinton broth (MHB) for inoculation to a final concentration of 5×10^5 colony forming units/mL. The assay was done on a 96-well plate to which the agents of interest were 2-fold serially diluted in MHB and incubated with equal volumes of inoculum at 37° C. for 18 hours. MIC was determined as the lowest concentration to inhibit visible bacterial growth in form of turbidity, which was confirmed using EMax Plus microplate reader (Molecular Devices, USA) at a wavelength of 590 nm. The well containing MHB broth with or without bacterial cells was used as positive or negative control, respectively.

The test system of series [1] is P. aeruginosa CANWARD-2011 96846 (gentamicin-, tobramycin-resistant). Here is the method:
as §1, §2, §3

Another series has as its system P. aeruginosa ATCC 27853. How it is done: as §1, §2, §3
Series [2] concerns methicillin-resistant S. epidermidis CAN-ICU 61589 (ceftazidime-resistant). Conditions: methicillin-resistant CAN-ICU 61589 (ceftazidime-resistant). How it is done:
as §1, §2, §3

Series [3] relates to methicillin-resistant S. aureus ATCC 33592. Here is the method: as §1, §2, §3
The test system of series [4] is P. aeruginosa wild-type PAO1. How it is done: as §1, §2, §3
The subject of series [5] is E. coli CAN-ICU 63074 (amikacin-intermediate resistant). How it is done:
as §1, §2, §3

Another series has as its system E. coli ATCC 25922. Here is the method:
as §1, §2, §3

Series [6] has as its system S. maltophilia CAN-ICU 62584. How it is done:
as §1, §2, §3

Series [7] concerns E. coli CAN-ICU 61714 (gentamicin-resistant). Here is the method: as §1, §2, §3
A further series has as its system E. faecalis ATCC 29212. How it is done:
as §1, §2, §3

A further series has as its system E. faecium ATCC 27270. How it is done: as §1, §2, §3
The next series deals with K. pneumoniae ATCC 13883. How it is done: as §1, §2, §3
The subject of series [8] is P. aeruginosa CAN-ICU 62308 (gentamicin-resistant). How it is done: as §1, §2, §3
Series [9] relates to E. coli CANWARD-2011 97615 (gentamicin-, tobramycin-, ciprofloxacin-resistant) aac(3′)iia. Here is the method:
as §1, §2, §3

Series [10] relates to A. baumannii CAN-ICU 63169. Here is the method:
as §1, §2, §3

The subject of series [11] is methicillin-susceptible Staphylococcus epidermidis CANWARD-2008 81388. Conditions: methicillin-susceptible CANWARD-2008 81388. How it is done:
as §1, §2, §3

In another series the test system is pig erythrocytes. How it is done:
Since PRAMPs are able to kill bacteria through membrane lysis, it is imperative to evaluate whether these synthesized SPRLPs also lyse eukaryotic membranes. The ability to lyse porcine red blood cells was assessed and the minimum concentration to result in 5% erythrocyte hemolysis (MHC) was reported (Tables 2 & 3). […] This greatly limits their therapeutic potential. […] However, all other SPRLPs were non-hemolytic (MHC>512 μg/mL).
The ability of SPRLPs to lyse eukaryotic red blood cells were quantified by the amount of hemoglobin released upon incubation with pig erythrocytes, following published protocols (37, 39). Fresh pig blood drawn from pig antecubital vein was centrifuged at 1000×g for 5 minutes at 4° C., washed with PBS three times and re-suspended in the same buffer, consecutively. Then, agents of interest were 2-fold serially diluted in PBS on 96-well plate and mixed with equal volumes of erythrocyte solution. Post 1-hour incubation at 37° C., intact cells were pelleted by centrifugation at 1000×g for 5 minutes at 4° C. The supernatant was then transferred to a new 96-well plate. The hemoglobin released was measured via EMax Plus microplate reader (Molecular Devices, USA) at 570 nm wavelength. Erythrocytes in PBS with or without 0.1% Triton X-100 was used as negative or positive control, respectively.

Read-outs that look alike come from different tables or passages of the source. Peptide text beside a SMILES is read from it. * marks the point of attachment. Acetyl(1-adamantyl) = O=C(CC12CC3CC(CC(C3)C1)C2)*; Lauroyl = CCCCCCCCCCCC(=O)*; Octanoyl = CCCCCCCC(=O)*

With `N=C(N)NCCC[C@H](NC(=O)[C@@H]1CCCN1C(=O)CNC(=O)[C@@H]1CCCN1C(=O)[C@H](CCCNC(=N)N)NC(=O)[C@@H]1CCCN1C(=O)CC12CC3CC(CC(C3)C1)C2)C(=O)N1CCC[C@H]1C(N)=O` [Ad-PGP, Adamantyl-CH2CO-PRPGPRP-NH2] ({Acetyl(1-adamantyl)}-PRPGPRP-NH2), the MIC with S. aureus ATCC 29213 is more than 128 mg/L; in [1], more than 128 mg/L; in the series on P. aeruginosa ATCC 27853, more than 128 mg/L; in series [2] it was more than 128 mg/L; in series [3] it was more than 128 mg/L; in series [4] it was more than 512 mg/L. Also, the MIC (in series [5]; with E. coli ATCC 25922; in series [6]; in series [7]; in the series with E. faecalis ATCC 29212; with E. faecium ATCC 27270) was more than 128 mg/L in each case. Moreover, the MIC (with K. pneumoniae ATCC 13883; in [8]; in series [9]; in series [10]; in series [11]) was more than 128 mg/L throughout. Also, in the series on pig erythrocytes (red cells of porcine), the “MHC (minimum concentration that resulted in 5% red blood cell hemolysis)” value was more than 512 µg/mL.
Consider `N=C(N)NCCC[C@H](NC(=O)[C@@H]1CCCN1C(=O)[C@H](Cc1c[nH]c2ccccc12)NC(=O)[C@@H]1CCCN1C(=O)[C@H](CCCNC(=N)N)NC(=O)[C@@H]1CCCN1C(=O)CC12CC3CC(CC(C3)C1)C2)C(=O)N1CCC[C@H]1C(N)=O` [Ad-PWP, Adamantyl-CH2CO-PRPWPRP-NH2] ({Acetyl(1-adamantyl)}-PRPWPRP-NH2), for which the minimal inhibitory concentration (MIC) is more than 128 mg/L in the series with S. aureus ATCC 29213; more than 128 mg/L in series [1]; more than 128 mg/L with P. aeruginosa ATCC 27853; more than 128 mg/L in series [2]; more than 128 mg/L in series [3]; more than 512 mg/L in series [4]. Moreover, the minimum inhibitory concentration (MIC) (in series [5]; with E. coli ATCC 25922; in [6]; in [7]; with E. faecalis ATCC 29212; with E. faecium ATCC 27270) was more than 128 mg/L in each case. Besides, the minimal inhibitory concentration (MIC) (in the series on K. pneumoniae ATCC 13883; in series [8]; in series [9]; in [10]; in [11]) was more than 128 mg/L each time. Also, the “MHC (minimum concentration that resulted in 5% red blood cell hemolysis)” value with pig erythrocytes (red cells of porcine) was more than 512 µg/mL.
For `CCCCCCCCCCCC(=O)N1CCC[C@H]1C(=O)N[C@@H](CCCNC(=N)N)C(=O)N1CCC[C@H]1C(=O)N[C@@H](Cc1c[nH]c2ccccc12)C(=O)N1CCC[C@H]1C(=O)N[C@@H](CCCNC(=N)N)C(=O)N1CCC[C@H]1C(N)=O` [Compound C12-PWP, CH3(CH2)10CO-PRPWPRP-NH2] (Lauroyl-PRPWPRP-NH2), the MIC is 32 mg/L in the series on S. aureus ATCC 29213; more than 128 mg/L in series [1]; more than 128 mg/L in the series with P. aeruginosa ATCC 27853; 16 mg/L in [2]; 32 mg/L in series [3]; 64 mg/L in series [4]. Also, the MIC in series [5] was 128 mg/L; in the series on E. coli ATCC 25922 it was 128 mg/L; in series [6], more than 128 mg/L; in series [7], 128 mg/L; in the series with E. faecalis ATCC 29212, 32 mg/L; with E. faecium ATCC 27270 it was 32 mg/L. The MIC with K. pneumoniae ATCC 13883 was more than 128 mg/L; in series [8], more than 128 mg/L; in [9] it was 128 mg/L; in series [10] it was 128 mg/L; in series [11], 16 mg/L. Besides, the “MHC (minimum concentration that resulted in 5% red blood cell hemolysis)” value in the series with pig erythrocytes stood at 64 µg/mL.
As for `CC(C)C[C@H](NC(=O)[C@@H]1CCCN1C(=O)[C@H](CCCNC(=N)N)NC(=O)[C@@H]1CCCN1C(=O)CC12CC3CC(CC(C3)C1)C2)C(=O)N1CCC[C@H]1C(=O)N[C@@H](CCCNC(=N)N)C(=O)N1CCC[C@H]1C(N)=O` [Ad-PLP, Adamantyl-CH2CO-PRPLPRP-NH2] ({Acetyl(1-adamantyl)}-PRPLPRP-NH2), the minimum inhibitory concentration (MIC) in the series on S. aureus ATCC 29213 was more than 128 mg/L; in series [1], more than 128 mg/L; with P. aeruginosa ATCC 27853, more than 128 mg/L; in series [2], more than 128 mg/L; in [3] it was more than 128 mg/L; in series [4], more than 512 mg/L. Moreover, the MIC (in series [5]; with E. coli ATCC 25922; in [6]; in series [7]; with E. faecalis ATCC 29212; in the series with E. faecium ATCC 27270) was more than 128 mg/L throughout. In addition, the MIC (with K. pneumoniae ATCC 13883; in series [8]; in series [9]; in series [10]; in [11]) was more than 128 mg/L each time. The “MHC (minimum concentration that resulted in 5% red blood cell hemolysis)” value in the series on pig erythrocytes (red cells of porcine) is more than 512 µg/mL.
As to `CCCCCCCC(=O)N1CCC[C@H]1C(=O)N[C@@H](CCCNC(=N)N)C(=O)N1CCC[C@H]1C(=O)NCC(=O)N1CCC[C@H]1C(=O)N[C@@H](CCCNC(=N)N)C(=O)N1CCC[C@H]1C(N)=O` [Compound C8-PGP, CH3(CH2)6CO-PRPGPRP-NH2] (Octanoyl-PRPGPRP-NH2), the MIC in the series on S. aureus ATCC 29213 is more than 128 mg/L; in [1], more than 128 mg/L; in the series on P. aeruginosa ATCC 27853 it was more than 128 mg/L; in [2], more than 128 mg/L; in series [3], more than 128 mg/L; in series [4], more than 512 mg/L. The MIC (in series [5]; in the series with E. coli ATCC 25922; in series [6]; in [7]; in the series on E. faecalis ATCC 29212; with E. faecium ATCC 27270) was more than 128 mg/L throughout. For the same compound, the MIC (in the series on K. pneumoniae ATCC 13883; in series [8]; in series [9]; in [10]; in [11]) was more than 128 mg/L throughout. In the series with pig erythrocytes (red cells of porcine), the “MHC (minimum concentration that resulted in 5% red blood cell hemolysis)” value is more than 512 µg/mL.

For the origin of these results see patent US20200407398A1, “Short Proline-Rich Lipopeptide Potentiates Minocycline and Rifampicin Against Multidrug-and Extensively Drug-Resistant Pseudomonas Aeruginosa” (priority 2018, published 2020).
